Results: the Bradley open melting point set (2014)
Values joined by “and” are separate entries in the source; they are usually repeats but may differ in a detail not shown here. Equal entries are not always repeated.

**Q.** Which melting point does the source give for `CCOc1ccccc1` [phenetole] here?
**A.** -30 °C

**Q.** Which melting point does the source give for `CN1CCC2=C(C1)C(c1ccccc1)c1ccccc12` (stereo not given) [phenindamine] here?
**A.** 91 °C

**Q.** Which melting point does the source give for `O=C1OC(c2ccc(O)cc2)(c2ccc(O)cc2)c2ccccc21` [phenolphthalein] here?
**A.** 260 °C

**Q.** With `c1ccc2c(c1)Nc1ccccc1S2` [phenothiazine] as the molecule, how does the melting point read?
**A.** 184 °C (3×) and 188 °C and 185 °C (2×)

**Q.** With `O=C(O)COc1ccccc1` [phenoxyacetic_acid] as the molecule, how does the melting point read?
**A.** 100 °C

**Q.** With `O=C(Oc1ccccc1)c1ccccc1` [phenyl benzoate] as the molecule, how does the melting point read?
**A.** 69 °C

**Q.** For `OC[C@H]1O[C@@H](Oc2ccccc2)[C@H](O)[C@@H](O)[C@H]1O` [phenyl beta-D-galactopyranoside], which melting point is on record?
**A.** 154 °C

**Q.** Which melting point does the source give for `C=CS(=O)(=O)c1ccccc1` [phenyl vinyl sulfone] here?
**A.** 69 °C

**Q.** With `O=C(Oc1ccccc1)c1ccccc1` [phenyl_benzoate] as the molecule, how does the melting point read?
**A.** 70 °C

**Q.** With `O=C(O)Cc1ccccc1` [phenylacetic acid] as the molecule, how does the melting point read?
**A.** 77.5 °C

**Q.** With `N#CCc1ccccc1` [phenylacetonitrile] as the molecule, how does the melting point read?
**A.** -24 °C

**Q.** For `CCCCC1C(=O)N(c2ccccc2)N(c2ccccc2)C1=O` [phenylbutazone], which melting point is on record?
**A.** 105 °C

**Q.** With `N#CCS(=O)(=O)c1ccccc1` [phenylsulfonylacetonitrile] as the molecule, how does the melting point read?
**A.** 112 °C

**Q.** With `NC(=S)N1CCCCC1` [piperidine-1-thiocarboxamide] as the molecule, how does the melting point read?
**A.** 128 °C

**Q.** Which melting point does the source give for `COc1cc(C(=O)OCc2cccc(COC(=O)c3cc(OC)c(OC)c(OC)c3)n2)cc(OC)c1OC` [pirozadil] here?
**A.** 119 °C

**Q.** With `C[C@]12CC[C@H](O)CC1=CC[C@@H]1[C@@H]2CC[C@]2(C)C(=O)CC[C@@H]12` [prasterone] as the molecule, how does the melting point read?
**A.** 140 °C

**Q.** Which melting point does the source give for `COc1cc2nc(N3CCN(C(=O)c4ccco4)CC3)nc(N)c2cc1OC` [prazosin] here?
**A.** 285 °C

**Q.** For `O=C\1\C=C/[C@]4(/C(=C/1)CC[C@@H]2[C@@H]4[C@@H](O)C[C@@]3([C@@](O)(C(=O)CO)CC[C@@H]23)C)C` [prednisolone], which melting point is on record?
**A.** 240 °C

**Q.** For `CCCN(CCC)S(=O)(=O)c1ccc(C(=O)O)cc1` [probenecid], which melting point is on record?
**A.** 198 °C

**Q.** With `CC(=O)[C@H]1CC[C@H]2[C@@H]3CCC4=CC(=O)CC[C@]4(C)[C@H]3CC[C@]12C` [progesterone] as the molecule, how does the melting point read?
**A.** 126 °C

**Q.** With `O=C(O)[C@@H]1CCCN1` [proline] as the molecule, how does the melting point read?
**A.** 221 °C

**Q.** With `CC(CN1c2ccccc2Sc2ccccc21)N(C)C` (stereo not given) [promethazine] as the molecule, how does the melting point read?
**A.** 60 °C

**Q.** For `CCC=O` [propanal], which melting point is on record?
**A.** -80 °C

**Q.** Which melting point does the source give for `CCCNC(=O)C(C(F)(F)F)C(F)(F)F` [propanamide, 3,3,3-trifluoro-N-propyl-2-(trifluoromethyl)-] here?
**A.** 106 °C

**Q.** For `C#CCO` [propargyl alcohol], which melting point is on record?
**A.** -53 °C

**Q.** With `C#CCO` [propargyl_alcohol] as the molecule, how does the melting point read?
**A.** -17 °C

**Q.** Which melting point does the source give for `CCC=O` [propionaldehyde] here?
**A.** -81 °C

**Q.** For `CCC(=O)c1ccccc1` [propiophenone], which melting point is on record?
**A.** 18 °C

**Q.** With `CCC(=O)OC(Cc1ccccc1)(c1ccccc1)C(C)CN(C)C` (stereo not given) [propoxyphene] as the molecule, how does the melting point read?
**A.** 75 °C

**Q.** Which melting point does the source give for `CC(C)NCC(O)COc1cccc2ccccc12` (stereo not given) [propranolol] [listing 1 of 2 here] here?
**A.** 162 °C

**Q.** For `CC(C)NCC(O)COc1cccc2ccccc12` (stereo not given) [propranolol] [listing 2 of 2 here], which melting point is on record?
**A.** 162 °C

**Q.** With `CCCCC[C@H](O)/C=C/[C@H]1[C@H](O)CC(=O)[C@@H]1C/C=C\CCCC(=O)O` [prostaglandin E2] as the molecule, how does the melting point read?
**A.** 67 °C

**Q.** For `Oc1cccc(O)c1O` [pyrogallol], which melting point is on record?
**A.** 133 °C

**Q.** With `C=C[C@H]1C[N@@]2CC[C@H]1C[C@H]2[C@H](O)c1ccnc2ccc(OC)cc12` [quinine] as the molecule, how does the melting point read?
**A.** 177 °C

**Q.** Which melting point does the source give for `O=C(O)c1ccc2ncccc2c1` [quinoline-6-carboxylic acid] here?
**A.** 295 °C

**Q.** For `CNC(=C[N+](=O)[O-])NCCSCc1ccc(CN(C)C)o1` [ranitidine], which melting point is on record?
**A.** 69 °C

**Q.** Which melting point does the source give for `Oc1cccc(O)c1` [resorcinol] here?
**A.** 111 °C

**Q.** Which melting point does the source give for `O=C2/N=C\1/N(c3cc(c(cc3/N=C/1C(=O)N2)C)C)CC(O)C(O)C(O)CO` (stereo not given) [riboflavin] here?
**A.** 280 °C

**Q.** With `NC(=O)c1ccccc1O` [salicylamide] as the molecule, how does the melting point read?
**A.** 140 °C

**Q.** Which melting point does the source give for `O=C(O)CCCCCCCCC(=O)O` [sebacic_acid] here?
**A.** 133 °C
